These are literature values, as cited in US20230030915A1, “Pet Food Compositions” (Hill's Pet Nutrition, Inc., priority 2019, published 2023).

This data set concerns piglets.

As to `C[N+](C)(C)CC(=O)O` [Betaine, Glycine betaine], the margin of safety entry (at 2 000 mg/kg complete feed) is “below 5”. In addition, where the note is “via feed”, the “maximum supplementation rate at which safe” value was 2 000 mg/kg complete feed.
